Test results reported in patent US11168073B2, “3,3-difluoroallylamines or salts thereof and pharmaceutical compositions comprising the same” (YUHAN CORPORATION, priority 2018, dated 2021).
Structures can show the parent of a compound that is named as a salt. Where two headings read alike, the source gives them in different places.

Columns and labels:
Format in all cases: biochemical
[1] = target: T1, recombinant human MAO-A (monoamine oxidase-A) (Homo sapiens, UniProt P21397); assay: Activity evaluation on recombinant human MAO-A (Amplex Red/HRP-coupled assay, 0.5 mM tyramine substrate); conditions: read-out: Inhibitory Activity (IC50, nM) MAO-A
T1 construct: purchased Sigma-Aldrich
T1 sequence (P21397 1-527): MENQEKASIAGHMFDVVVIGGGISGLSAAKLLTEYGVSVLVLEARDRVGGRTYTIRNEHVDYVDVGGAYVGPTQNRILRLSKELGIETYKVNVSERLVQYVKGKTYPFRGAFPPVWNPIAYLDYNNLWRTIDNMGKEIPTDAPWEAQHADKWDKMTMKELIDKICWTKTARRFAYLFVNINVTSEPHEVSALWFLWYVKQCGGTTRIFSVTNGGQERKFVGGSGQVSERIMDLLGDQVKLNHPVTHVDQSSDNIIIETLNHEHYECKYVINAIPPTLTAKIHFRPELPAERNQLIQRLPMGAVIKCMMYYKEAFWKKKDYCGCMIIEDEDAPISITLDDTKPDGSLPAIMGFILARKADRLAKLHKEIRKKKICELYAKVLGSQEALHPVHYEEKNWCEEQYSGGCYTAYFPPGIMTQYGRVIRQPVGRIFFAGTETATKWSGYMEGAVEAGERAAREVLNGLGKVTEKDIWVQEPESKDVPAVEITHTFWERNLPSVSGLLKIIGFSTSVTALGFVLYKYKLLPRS
Outline: (§1)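 Enzyme activity was measured as fluorescence rate (ex 544, em 590 nm) from resorufin formed by HRP-coupled H2O2 oxidation of 200 uM Amplex Red. Compounds were first incubated 30 min at 37 °C with enzyme at pH 7.4; substrates were 0.5 mM tyramine (MAO-A), 1 mM benzylamine (MAO-B) and 1 mM putrescine (DAO).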

recombinant human VAP-1 = target: T2, recombinant human VAP-1 (Homo sapiens, UniProt Q16853); assay: Activity evaluation on recombinant human VAP-1 (Amplex Red/HRP-coupled hydrogen peroxide assay, benzylamine substrate); conditions: read-out: Inhibitory Activity (IC50, nM) human VAP-1
T2 construct: purchased R&D systems
T2 sequence (Q16853 1-763): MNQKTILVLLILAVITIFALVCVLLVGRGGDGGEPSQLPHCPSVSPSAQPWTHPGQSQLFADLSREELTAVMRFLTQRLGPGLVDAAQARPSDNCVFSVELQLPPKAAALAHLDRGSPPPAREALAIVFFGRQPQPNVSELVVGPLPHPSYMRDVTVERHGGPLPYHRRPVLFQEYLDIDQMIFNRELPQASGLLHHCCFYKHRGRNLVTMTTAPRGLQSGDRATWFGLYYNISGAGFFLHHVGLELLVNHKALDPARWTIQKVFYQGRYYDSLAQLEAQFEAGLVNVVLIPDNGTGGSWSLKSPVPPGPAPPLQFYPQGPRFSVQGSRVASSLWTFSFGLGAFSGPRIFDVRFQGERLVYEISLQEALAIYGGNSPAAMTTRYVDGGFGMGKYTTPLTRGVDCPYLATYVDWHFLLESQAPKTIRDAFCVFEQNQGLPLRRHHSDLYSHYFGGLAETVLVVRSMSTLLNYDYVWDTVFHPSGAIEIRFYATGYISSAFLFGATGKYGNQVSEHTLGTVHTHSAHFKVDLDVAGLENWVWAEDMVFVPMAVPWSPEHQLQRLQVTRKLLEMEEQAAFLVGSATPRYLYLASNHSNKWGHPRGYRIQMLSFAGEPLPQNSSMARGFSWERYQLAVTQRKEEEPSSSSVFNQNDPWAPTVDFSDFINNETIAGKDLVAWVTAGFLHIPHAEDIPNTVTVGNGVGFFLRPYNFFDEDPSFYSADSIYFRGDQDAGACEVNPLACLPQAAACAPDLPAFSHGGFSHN
Outline: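 Recombinant human VAP-1 in 50 mM sodium phosphate pH 7.4 preincubated 30 min at 37 °C with compound (8-point 1:3 series, <1% DMSO), then 1 mM benzylamine, 200 uM Amplex Red, 1 U/mL HRP added. H2O2-derived resorufin fluorescence (ex 544/em 590) followed 1–2 h; IC50 from four-parameter fit of rate inhibition.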

[2] = target: T3, recombinant human DAO (diamine oxidase) (Homo sapiens, UniProt P19801); assay: Activity evaluation on recombinant human DAO (Amplex Red/HRP-coupled assay, 1 mM putrescine substrate); conditions: read-out: Inhibitory Activity (IC50, nM) DAO
T3 construct: purchased R&D systems
T3 sequence (P19801 20-751): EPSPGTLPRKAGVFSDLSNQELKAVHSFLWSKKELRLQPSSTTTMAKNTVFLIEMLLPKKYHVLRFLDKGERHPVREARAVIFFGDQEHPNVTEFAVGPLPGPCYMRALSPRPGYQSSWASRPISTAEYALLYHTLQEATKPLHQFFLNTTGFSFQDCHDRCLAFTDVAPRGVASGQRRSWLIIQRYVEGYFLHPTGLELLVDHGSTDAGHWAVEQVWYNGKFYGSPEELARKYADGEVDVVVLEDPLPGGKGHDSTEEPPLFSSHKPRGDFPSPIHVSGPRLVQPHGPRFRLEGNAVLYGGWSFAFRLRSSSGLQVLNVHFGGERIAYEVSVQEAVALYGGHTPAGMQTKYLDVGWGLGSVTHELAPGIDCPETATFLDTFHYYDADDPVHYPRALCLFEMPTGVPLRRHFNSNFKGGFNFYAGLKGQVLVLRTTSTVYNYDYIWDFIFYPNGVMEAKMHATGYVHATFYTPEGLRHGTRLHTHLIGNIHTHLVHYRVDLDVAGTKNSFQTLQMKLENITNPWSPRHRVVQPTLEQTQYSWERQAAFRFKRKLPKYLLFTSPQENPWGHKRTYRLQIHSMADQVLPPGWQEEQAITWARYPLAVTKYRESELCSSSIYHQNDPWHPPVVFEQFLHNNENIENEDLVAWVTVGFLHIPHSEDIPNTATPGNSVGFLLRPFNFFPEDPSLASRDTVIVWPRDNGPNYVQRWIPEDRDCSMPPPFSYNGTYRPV
Outline: as §1

[3] = target: T4, recombinant human MAO-B (monoamine oxidase-B) (Homo sapiens, UniProt P27338); assay: Activity evaluation on recombinant human MAO-B (Amplex Red/HRP-coupled assay, 1 mM benzylamine substrate); conditions: read-out: Inhibitory Activity (IC50, nM) MAO-B
T4 construct: purchased Sigma-Aldrich
T4 sequence (P27338 1-520): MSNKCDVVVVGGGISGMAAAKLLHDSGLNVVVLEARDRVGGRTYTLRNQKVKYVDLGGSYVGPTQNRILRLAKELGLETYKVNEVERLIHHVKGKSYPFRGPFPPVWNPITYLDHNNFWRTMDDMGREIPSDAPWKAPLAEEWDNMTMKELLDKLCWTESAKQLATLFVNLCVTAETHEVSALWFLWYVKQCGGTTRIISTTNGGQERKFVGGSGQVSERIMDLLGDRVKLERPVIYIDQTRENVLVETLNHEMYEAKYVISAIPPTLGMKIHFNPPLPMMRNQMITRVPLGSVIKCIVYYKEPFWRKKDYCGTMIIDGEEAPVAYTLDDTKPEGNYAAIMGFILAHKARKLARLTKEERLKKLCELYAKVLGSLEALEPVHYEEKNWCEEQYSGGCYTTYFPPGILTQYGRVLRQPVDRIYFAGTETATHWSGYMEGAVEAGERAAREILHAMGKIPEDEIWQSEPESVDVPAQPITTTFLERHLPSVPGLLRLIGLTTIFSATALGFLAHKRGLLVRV
Outline: as §1

[4] = recombinant human VAP-1, benzylamine substrate
[5] = recombinant human VAP-1, 30 min preincubation at 37° C., 1 mM benzylamine

IC50 ([1]; 0.5 mM tyramine substrate) [nM] | IC50 (recombinant human VAP-1; [4]) [nM] | IC50 ([2]; 1 mM putrescine substrate) [nM] | IC50 ([3]; 1 mM benzylamine substrate) [nM] | IC50 ([1]; 0.5 mM tyramine) [nM] | IC50 (recombinant human VAP-1; [5]) [nM] | IC50 ([2]; 1 mM putrescine) [nM] | IC50 ([3]; 1 mM benzylamine) [nM] | Compound
38900 | 1.1 | 1860 | 42700 |  |  |  |  | CN1C(=O)CCc2cc(-c3ccc4sc(Cn5cnn(CC(CN)=C(F)F)c5=O)cc4c3)ccc21 [Example 211, 6-[2-[[1-[2-(aminomethyl)-3,3-difluoro-allyl]-5-oxo-1,2,4-triazol-4-yl]methyl]benzothiophen-5-yl]-1-methyl-3,4-dihydroquinolin-2-one Trifluoroacetate]
 |  |  |  | > 100000 | 0.1 | 97 | 160 | Cc1cc(-c2ccc(-n3cnn(CC(CN)=C(F)F)c3=O)c(F)c2)cc2c1NC(=O)CC2 [Example 36, 6-[4-[1-[2-(aminomethyl)-3,3-difluoro-allyl]-5-oxo-1,2,4-triazol-4-yl]-3-fluoro-phenyl]-8-methyl-3,4-dihydro-1H-quinolin-2-one Trifluoroacetate]
 |  |  |  | > 100000 | 1.2 | > 100000 | > 100000 | Cc1cc(-c2ccc(N3CCNCC3)cc2)cnc1-n1cnn(CC(CN)=C(F)F)c1=O [Example 69, 2-[2-(aminomethyl)-3,3-difluoro-allyl]-4-[3-methyl-5-(4-piperazin-1-ylphenyl)-2-pyridyl]-1,2,4-triazol-3-one Ditrifluoroacetate]
 |  |  |  | > 100000 | 23 | 18600 | 13900 | NCC(Cn1ncn(Cc2cc(Br)cs2)c1=O)=C(F)F [Example 98, 2-[2-(aminomethyl)-3,3-difluoro-allyl]-4-[(4-bromo-2-thienyl)methyl]-1,2,4-triazol-3-one Trifluoroacetate]
 |  |  |  | > 100000 | 11 | 2600 | > 100000 | NCC(Cn1ncn(Cc2cc(-c3ccc(N4CCNCC4)cc3)cs2)c1=O)=C(F)F [Example 147, 2-[2-(aminomethyl)-3,3-difluoro-allyl]-4-[[4-(4-piperazin-1-ylphenyl)-2-thienyl]methyl]-1,2,4-triazol-3-one Ditrifluoroacetate]
> 100000 | 0.7 | 4800 | 340 |  |  |  |  | Cc1cc(-c2ccc3nonc3c2)cnc1-n1cnn(CC(CN)=C(F)F)c1=O [Example 227, 2-[2-(aminomethyl)-3,3-difluoro-allyl]-4-[5-(2,1,3-benzoxadiazol-5-yl)-3-methyl-2-pyridyl]-1,2,4-triazol-3-one Trifluoroacetate]
> 100000 | 1.1 | 11000 | > 100000 |  |  |  |  | Cc1cc(-c2ccc(N3CCNCC3)nc2)cnc1-n1cnn(CC(CN)=C(F)F)c1=O [Example 220, 2-[2-(aminomethyl)-3,3-difluoro-allyl]-4-[3-methyl-5-(6-piperazin-1-yl-3-pyridyl)-2-pyridyl]-1,2,4-triazol-3-one Ditrifluoroacetate]
 |  |  |  | > 100000 | 2.1 | 350 | > 100000 | CN(C)c1ccc(-c2cccc(-n3cnn(CC(CN)=C(F)F)c3=O)c2)cn1 [Example 20, 2-[2-(aminomethyl)-3,3-difluoro-allyl]-4-[3-[6-(dimethylamino)-3-pyridyl]phenyl]-1,2,4-triazol-3-one Trifluoroacetate]
 |  |  |  | > 100000 | 3.5 | 40000 | > 100000 | COCCNc1ncc(-c2ccc(Cn3cnn(CC(CN)=C(F)F)c3=O)s2)cn1 [Example 118, 2-[2-(aminomethyl)-3,3-difluoro-allyl]-4-[[5-[2-(2-methoxyethylamino)pyrimidin-5-yl]-2-thienyl]methyl]-1,2,4-triazol-3-one Trifluoroacetate]
 |  |  |  | 8100 | 0.6 | 16000 | 20000 | NCC(Cn1ncn(Cc2ccc(-c3ccc4c(c3)NC(=O)CO4)s2)c1=O)=C(F)F [Example 141, 6-[5-[[1-[2-(aminomethyl)-3,3-difluoro-allyl]-5-oxo-1,2,4-triazol-4-yl]methyl]-2-thienyl]-4H-1,4-benzoxazin-3-one Trifluoroacetate]
> 100000 | 0.7 | 2380 | 1190 |  |  |  |  | CCn1cc(-c2ccc(-c3cnc(-n4cnn(CC(CN)=C(F)F)c4=O)c(C)c3)cc2)cn1 [Example 290, 2-[2-(aminomethyl)-3,3-difluoro-allyl]-4-[5-[4-(1-ethylpyrazol-4-yl)phenyl]-3-methyl-2-pyridyl]-1,2,4-triazol-3-one Trifluoroacetate]
> 100000 | 1.9 | 14800 | > 100000 |  |  |  |  | NCC(Cn1ncn(Cc2ccc(-c3cnn(Cc4ccccc4)c3)s2)c1=O)=C(F)F [Example 297, 2-[2-(aminomethyl)-3,3-difluoro-allyl]-4-[[5-(1-benzylpyrazol-4-yl)-2-thienyl]methyl]-1,2,4-triazol-3-one Trifluoroacetate]
